The results in this text go back to ChEMBL document CHEMBL5528033, “Peptide-Drug Conjugates: An Emerging Direction for the Next Generation of Peptide Therapeutics” (J Med Chem, 2024).

Starred links: 1 amine or outer side, 2 acyl side, 3 side chain; linkers in the order of their positions; H or OH if unused. Positions of bridges follow the written chain, without caps; N, C: chain ends. Non-standard residues stand in square brackets, D forms with d. Residues, ends and D or L forms follow the SMILES beside them. *: point of attachment. DAMPA = CN(Cc1cnc2nc(N)nc(N)c2n1)c1ccc(C(=O)*)cc1; γGlu = O=C(O)[C@H](CCC(=O)[*:2])N[*:1]; Pen = CC(C)(S)[C@H](N)C(=O)O

Data set [1] can be described thus: Binding affinity to Dengue virus NS2B-NS3 protease assessed as inhibition constant.
In data set [2] the target is Kappa-type opioid receptor (Mus musculus, UniProt P33534). The data set can be described thus: Displacement of [3H]DPN from mouse KOR stably expressed in HEK293T cell membrane assessed as inhibition constant by radioligand binding assay. It counts as cell membranes.
Kappa-type opioid receptor, sequence (P33534 whole entry): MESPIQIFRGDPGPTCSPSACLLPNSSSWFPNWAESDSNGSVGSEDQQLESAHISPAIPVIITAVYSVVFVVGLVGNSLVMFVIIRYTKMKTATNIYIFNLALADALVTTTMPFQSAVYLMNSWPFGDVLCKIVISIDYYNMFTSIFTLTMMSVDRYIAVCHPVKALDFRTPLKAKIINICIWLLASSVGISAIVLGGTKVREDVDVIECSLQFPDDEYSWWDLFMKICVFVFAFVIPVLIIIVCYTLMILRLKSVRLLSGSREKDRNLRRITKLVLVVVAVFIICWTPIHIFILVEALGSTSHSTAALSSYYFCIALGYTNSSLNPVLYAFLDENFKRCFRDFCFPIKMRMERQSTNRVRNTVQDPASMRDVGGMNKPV
The nature of data set [3]: Stability of the compound assessed as half life at pH 6. The note with it: buffer. In kind it is physicochemical.
The nature of data set [4]: Stability in rat plasma assessed as half life measured upto 120 mins. It counts as ADME, cell-free.
The nature of data set [5]: Stability in rat heart assessed as half life measured upto 120 mins. It counts as ADME, tissue-based.

One may read the Ki as a measure of affinity in units of concentration, obtained from inhibition or displacement. In the case of `CCCC[C@@H](NC(=O)[C@H](CCCCN)NC(=O)[C@H](CCCNC(=N)N)NC(=O)c1ccc(/C=C(\C#N)C(=O)NC2CC2)cc1)C(N)=O`, in data set [1], the Ki turned out to be 4900 nM.

Turning to `C[C@H](O)[C@@H]1NC(=O)[C@H](Cc2ccc(O)cc2)NC(=O)[C@@H](C)NC(=O)[C@@H](Cc2ccc(O)cc2)NC(=O)CSC[C@@H](C(=O)N[C@@H](C(=O)N[C@H](Cc2ccccc2)C(=O)N[C@@H]2CCC3C4Cc5ccc(O)c6c5C3(CCN4C)[C@H]2O6)[C@@H](C)O)NC(=O)[C@H]([C@H](C)O)NC1=O` (stereo partly specified), the Ki in data set [2] came to 72 nM.

As to `C=CCN1CCC23c4c5ccc(O)c4O[C@H]2[C@H](NC(=O)[C@@H](Cc2ccccc2)NC(=O)[C@H](NC(=O)[C@@H]2CSCC(=O)N[C@H](Cc4ccc(O)cc4)C(=O)N[C@H](C)C(=O)N[C@@H](Cc4ccc(O)cc4)C(=O)N[C@@H]([C@H](C)O)C(=O)N[C@@H]([C@H](C)O)C(=O)N2)[C@@H](C)O)CCC3C1C5` (stereo partly specified), in data set [2], the Ki was found to be 3.9 nM.

By half-life is commonly meant how long it takes for the measured level to halve. On to `CC(C)C[C@@H]1NC(=O)[C@H](C(C)C)NC(=O)[C@H](CO)NC(=O)CNC(=O)CNC(=O)[C@H](CCCNC(=N)N)NC(=O)[C@@H]2CCCN2C(=O)[C@@H](NC(=O)CC[C@H](NC(=O)c2ccc(N(C)Cc3cnc4nc(N)nc(N)c4n3)cc2)C(=O)O)C(C)(C)SSC[C@@H](C(=O)O)NC(=O)CNC(=O)[C@H]([C@@H](C)O)NC(=O)[C@H](C(C)C)NC1=O` ({DAMPA-γGlu}-[Pen]PRGGSVLVTGC-OH; disulfide 1-12), for which the half-life worked out at 770 min in data set [3], 43.8 min in data set [4] and 38.1 min in data set [5].
